# US8513276B2, “Imidazo[1,2-a]pyridine compounds for use in treating cancer” (Astex Therapeutics Limited, priority 2006, dated 2013)
# Where a name gives a salt, the structure may show the parent alone. Read-outs that look alike come from different tables or passages of the source.
# Tests used:
# FGFR3 = molecular target: T1, FGFR3 (Homo sapiens, UniProt P22607); assay: FGFR3 in vitro kinase inhibitory activity assay (TRF); format: biochemical
# T1 construct: Enzymes (from Upstate) were prepared at 2× final concentration in 1× kinase assay buffer; purchased Upstate
# T1 sequence (P22607 23-806): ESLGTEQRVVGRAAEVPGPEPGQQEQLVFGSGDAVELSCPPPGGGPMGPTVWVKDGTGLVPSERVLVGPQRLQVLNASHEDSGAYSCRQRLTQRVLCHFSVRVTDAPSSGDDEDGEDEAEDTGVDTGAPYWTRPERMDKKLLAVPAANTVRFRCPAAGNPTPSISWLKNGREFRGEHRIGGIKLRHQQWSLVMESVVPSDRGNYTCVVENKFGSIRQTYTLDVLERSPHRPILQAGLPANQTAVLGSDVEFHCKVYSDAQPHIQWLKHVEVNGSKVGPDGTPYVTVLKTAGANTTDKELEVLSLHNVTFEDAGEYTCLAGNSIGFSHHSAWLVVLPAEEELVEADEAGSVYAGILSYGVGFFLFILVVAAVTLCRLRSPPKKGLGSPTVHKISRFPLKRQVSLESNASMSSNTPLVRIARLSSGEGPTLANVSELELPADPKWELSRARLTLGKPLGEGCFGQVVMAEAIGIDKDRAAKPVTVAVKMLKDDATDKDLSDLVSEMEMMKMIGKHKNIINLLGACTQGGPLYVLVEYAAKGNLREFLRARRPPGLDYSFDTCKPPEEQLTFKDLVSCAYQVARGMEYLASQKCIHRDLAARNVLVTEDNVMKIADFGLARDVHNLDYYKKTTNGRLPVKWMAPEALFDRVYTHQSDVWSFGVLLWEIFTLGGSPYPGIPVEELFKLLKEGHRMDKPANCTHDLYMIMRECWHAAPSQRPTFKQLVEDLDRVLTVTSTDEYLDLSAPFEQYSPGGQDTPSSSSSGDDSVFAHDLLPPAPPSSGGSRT
# Protocol: Enzymes (from Upstate) were prepared at 2× final concentration in 1× kinase assay buffer (as described below). Enzymes were then incubated with test compounds, biotinylated Flt3 substrate (biotin—DNEYFYV) (Cell Signalling Technology Inc.) and ATP. The reaction was allowed to proceed for 3 hours (FGFR3) or 2.5 hrs (PDGFR-beta) at room temperature on a plate shaker at 900 rpm before being stopped with 20 μl of 35 mM EDTA, pH 8 (FGFR3) or 55 mM EDTA, pH 8 (PDGFR-beta). Twenty μl of 5× detection mix (50 mM HEPES pH 7.5, 0.1% BSA, 2 nM Eu-anti-pY (PY20) (PerkinElmer) 15 nM SA-XL665 (Cisbio) for FGFR3 and 50 mM HEPES, pH 7.5, 0.5 M KF, 0.1% BSA, 11.34 nM Eu-anti-pY (PT66) (PerkinEimer), 94 nM SA-XL665 (Cisbio) for PDGFR-beta) was then added to each well and the plate sealed and incubated at room temperature for one hour on a plate shaker at 900 rpm. The plate was then read on a Packard Fusion plate reader in TRF mode.
# Kinase Assay buffers were:
# A: 50 mM HEPES pH 7.5, 6 mM MnCl2, 1 mM DTT, 0.1% TritonX-100
# LP-1 cell line = assay: Cell-based pERK ELISA in LP-1 multiple myeloma cells; conditions: Homo sapiens
# Protocol: LP-1 or JIM-1 multiple myeloma cells were seeded in 96 well plates at 1×10^6 cells/ml in 200 μl per well in serum free media. HUVEC cells were seeded at 2.5×10^5 cells/ml and allowed to recover for 24 h prior to transfer to serum free media. Cells were incubated for 16 h at 37° C. prior to the addition of a test compound for 30 minutes. Test compounds were administered at a 0.1% final DMSO concentration. Following this 30 minute incubation a FGF-1/Heparin (FGF-1 at 100 ng/ml final and Heparin at 100 ug/ml) mixture or VEGF^165 ([…]) was added to each of the wells for a further 5 minutes. The media was removed and 50 ul ERK ELISA lysis buffer (R and D Systems DuoSet ELISA for pERK and Total ERK #DYC-1940E, DYC-1018E) added. ELISA plates and standards were prepared according to the standard DuoSet protocols and the relative amounts of pERK to total ERK in each sample calculated according to the standard curve.
# In particular, compounds of the invention were tested against the LP-1 cell line (DSMZ no.: ACC 41) derived from human multiple myeloma.
# [1] = given as a bound, read-out: IC50 in the FGFR3 assay
# [2] = in vitro kinase assay, 8 μM ATP, read-out: FGFR3 IC50
# [3] = LP-1 cell line, given as a bound, read-out: IC50 in LP-1 pERK ELISA
# [4] = LP-1 cells, FGF-1/heparin stimulation, pERK relative to total ERK, read-out: LP-1 pERK ELISA
SMILES,IC50 (FGFR3; [1]) [nM],IC50 (FGFR3; [2]) [nM],IC50 (LP-1 cell line; [3]) [nM],IC50 (LP-1 cell line; [4]) [nM]
"Nc1ccc(-c2cnc3c(-c4cccc(Nc5nncs5)c4)cnn3c2)cn1 [Example 11, 5-{3-[3-([1,3,4]Thiadiazol-2-ylamino)-phenyl]-pyrazolo[1,5-a]pyrimidin-6-yl}-pyridin-2-ylamine hydrochloride salt]",< 1000,6.03,< 1000,40
"CNC(=O)Cc1cccc(-c2ccn3c(-c4cccc(Nc5nncs5)c4)cnc3c2)c1 [Example 26, N-Methyl-2-(3-{3-[3-([1,3,4]thiadiazol-2-ylamino)-phenyl]-imidazo[1,2-a]pyridin-7-yl}-phenyl)-acetamide Hydrochloride]",< 1000,,< 1000,
"Fc1ccc(-c2ccn3c(-c4cccc(Nc5nncs5)c4)cnc3c2)cc1 [Example 7, {3-[7-(4-Fluoro-phenyl)-imidazo[1,2-a]pyridin-3-yl]-phenyl}-[1,3,4]thiadiazol-2-yl-amine]",< 1000,2.2,< 1000,69
"Cc1ccn2c(-c3cccc(Nc4nncs4)c3)cnc2c1 [Example 41, [3-(7-Methyl-imidazo[1,2-a]pyridin-3-yl)phenyl]-[1,3,4]thiadiazol-2-yl-amine Hydrochloride]",< 1000,,,
"Nc1ccc(-c2ccn3c(-c4cccc(Nc5nncs5)c4)cnc3c2)cn1 [Example 37, 5-{3-[3-([1,3,4]Thiadiazol-2-ylamino)-phenyl]-imidazo[1,2-a]pyridin-7-yl}-pyridin-2-ylamine Hydrochloride]",< 1000,2.55,,
"CN1CCN(Cc2ccc(-c3ccn4c(-c5cccc(Nc6cnn[nH]6)c5)cnc4c3)cc2)CC1 [Example 4, (3-{7-[4-(4-Methyl-piperazin-1-ylmethyl)-phenyl]-imidazo[1,2-a]pyridin-3-yl}-phenyl)-(3H-[1,2,3]triazol-4-yl)-amine formate salt]",< 1000,,< 1000,
"Fc1ccc(-c2ccn3c(-c4cccc(Nc5ncns5)c4)cnc3c2)cc1 [Example 39, {3-[7-(4-Fluoro-phenyl)-imidazo[1,2-a]pyridin-3-yl]phenyl}-[1,2,4]thiadiazol-5-yl-amine]",< 1000,115,,
"Fc1ccc(-c2ccn3c(-c4cccc(Nc5cnccn5)c4)cnc3c2)cc1 [Example 1, {3-[7-(4-Fluoro-phenyl)-imidazo[1,2-a]pyridin-3-yl]-phenyl}-pyrazin-2-yl-amine]",< 1000,,,
"CN1CCN(Cc2cccc(-c3ccn4c(-c5cccc(Nc6nncs6)c5)cnc4c3)c2)CC1 [Example 9, (3-{7-[3-(4-Methyl-piperazin-1-ylmethyl)-phenyl]-imidzao[1,2-a]pyridin-3-yl}-phenyl)-[1,3,4]thiadiazol-2-yl-amine formate salt]",< 1000,,< 1000,
"O=C(O)Cc1cccc(-c2ccn3c(-c4cccc(NCc5ccccc5)c4)cnc3c2)c1 [Example 13, {3-[3-(3-Benzylamino-phenyl)-imidazo[1,2-a]pyridin-7-yl]-phenyl}-acetic acid]",< 1000,,< 1000,
Cc1nnc(Nc2cccc(-c3cnc4cc(-c5cccc(CN6CCOCC6)c5)ccn34)c2)s1 [Example 3],< 1000,,< 1000,
"Cn1cc(-c2cnc3c(-c4cccc(Nc5nncs5)c4)cnn3c2)cn1 [Example 16, {3-[6-(1-Methyl-1H-pyrazol-4-yl)-pyrazolo[1,5-a]pyrimidin-3-yl]-phenyl}-[1,3,4]thiadiazol-2-yl-amine]",< 1000,,< 1000,
"CCS(=O)(=O)N1CCN(c2ccn3c(-c4cccc(Nc5nncs5)c4)cnc3c2)CC1 [Example 21, {3-[7-(4-Ethanesulfonyl-piperazin-1-yl)-imidazo[1,2-a]pyridin-3-yl]-phenyl}-[1,3,4]thiadiazol-2-yl-amine Hydrochloride]",< 1000,,,
"Nc1nc(Nc2cccc(-c3cnc4cc(-c5ccc(F)cc5)ccn34)c2)n[nH]1 [Example 27, N*3*-(3-[7-(4-Fluoro-phenyl)-imidazo[1,2-a]pyridin-3-yl]-phenyl}-1H-[1,2,4]triazole-3,5-diamine]",< 1000,130,,
"OCc1cccc(-c2ccn3c(-c4cccc(Nc5nncs5)c4)cnc3c2)c1 [Example 35, (3-{3-[3-([1,3,4]Thiadiazol-2-ylamino)-phenyl]-imidazo[1,2-a]pyridin-7-yl}-phenyl)-methanol]",< 1000,,,
"c1cc(Nc2nncs2)cc(-c2cnc3cc(N4CCOCC4)ccn23)c1 [Example 19, [3-(7-Morpholin-4-yl-imidazo[1,2-a]pyridin-3-yl)-phenyl]-[1,3,4]thiadiazol-2-yl-amine]",< 1000,,,
"Fc1ccc(-c2cnc3c(-c4cc(Nc5nncs5)ccn4)cnn3c2)cc1 [Example 31, {2-[6-(4-Fluoro-phenyl)-pyrazolo[1,5-a]pyrimidin-3-yl]-pyridin-4-yl}-[1,3,4]thiadiazol-2-yl-amine]",< 1000,350,,
"O=C(c1cccc(-c2ccn3c(-c4cccc(Nc5nncs5)c4)cnc3c2)c1)N1CCOCC1 [Example 22, Morpholin-4-yl-(3-{3-[3-([1,3,4]thiadiazol-2-ylamino)-phenyl]-imidazo[1,2-a]pyridin-7-yl}-phenyl)-methanone Hydrochloride]",< 1000,,,
"CCOC(=O)N1CCN(c2ccn3c(-c4cccc(Nc5nncs5)c4)cnc3c2)CC1 [Example 36, 4-{3-[3-([1,3,4]Thiadiazol-2-ylamino)-phenyl]-imidazo[1,2-a]pyridin-7-yl}-piperazine-1-carboxylic acid ethyl ester]",< 1000,,,
"Cn1ccnc1Nc1cccc(-c2cnc3cc(-c4ccc(F)cc4)ccn23)c1 [Example 34, {3-[7-(4-Fluoro-phenyl)-imidazol[1,2-a]pyridin-3-yl]-phenyl}-(1-methyl-1H-imidazol-2-yl)-amine Hydrochloride]",< 1000,480,,
"CC(=O)N1CCN(c2ccn3c(-c4cccc(Nc5nncs5)c4)cnc3c2)CC1 [Example 38, 1-(4-{3-[3-([1,3,4]Thiadiazol-2-ylamino)-phenyl]-imidazo[1,2-a]pyridin-7-yl}-piperazin-1-yl)-ethanone]",< 1000,,,
"CS(=O)(=O)NCc1cccc(-c2ccn3c(-c4cccc(Nc5nncs5)c4)cnc3c2)c1 [Example 40, N-(3-{3-[3-([1,3,4]Thiadiazol-2-ylamino)-phenyl]-imidazo[1,2-a]pyridin-7-yl}-benzyl)-methanesulfonamide]",< 1000,,,
"Fc1ccc(-c2ccc3c(c2)ncn3-c2cccc(Nc3nncs3)c2)cc1 [Example 23, {3-[5-(4-Fluoro-phenyl)-benzoimidazol-1-yl]-phenyl}-[1,3,4]thiadiazol-2-yl-amine]",< 1000,,,
"c1ccc(Nc2cccc(-c3cnc4cc(-c5cccc(CN6CCOCC6)c5)ccn34)c2)cc1 [Example 8, {3-[7-(3-Morpholin-4-ylmethyl-phenyl)-imidazo[1,2-a]pyridin-3-yl]-phenyl}-phenyl-amine]",< 1000,,,
"Cn1cc(-c2ccn3c(-c4cccc(NCc5ccccc5)c4)cnc3c2)cn1 [Example 42, Benzyl-{3-[7-(1-methyl-1H-pyrazol-4-yl)-imidazo[1,2-a]pyridin-3-yl]phenyl}-amine]",< 1000,,,
"Clc1ccn2c(-c3cccc(NCc4ccccc4)c3)cnc2c1 [the product of Procedure F8, Benzyl-[3-(7-chloro-imidazo[1,2-a]pyridin-3-yl)-phenyl]-amine]",< 1000,,,
"Clc1ccn2c(-c3cccc(Nc4cnn[nH]4)c3)cnc2c1 [the product of Procedure G1, [3-(7-Chloro-imidazo[1,2-a]pyridin-3-yl)-phenyl]-(3H-[1,2,3]triazol-4-yl)-amine]",< 1000,,,
c1cc(Nc2nncs2)cc(-c2cnc3cc(-c4ccnc(OC5CCOCC5)c4)ccn23)c1 [Example 33],< 1000,,,
"Fc1ccc(-c2ccn3c(-c4cccc(Nc5nnco5)c4)cnc3c2)cc1 [Example 29, {3-[7-(4-Fluoro-phenyl)-imidazo[1,2-a]pyridin-3-yl]phenyl}-[1,3,4]oxadiazol-2-yl-amine]",< 1000,11,,
"Fc1ccc(-c2ccn3c(-c4cccc(Nc5ccncc5)c4)cnc3c2)cc1 [Example 6, {3-[7-(4-Fluoro-phenyl)-imidazo[1,2-a]pyridin-3-yl]-phenyl}-pyridin-4-yl-amine formate salt]",< 1000,,,
